From article PMC12683216, “Using High‐Throughput Screening to Identify Crosslinking Peptides That Control Cell‐Mediated Matrix Degradation” (Advanced Healthcare Materials, 2025)
Where a SMILES comes first, the peptide text is derived from it. [ ]: non-standard residue; d: D form. βAla = NCCC(=O)O

What was measured:
hMSCs = test: Cell growth and viability within peptide-crosslinked hydrogels; format: cell-based, human; details: 3.5% 8-arm PEG, 40% arms crosslinking peptide, 10% cyclic RGD, 20 million cells mL^−1, up to Day 7
From the text: (§1) Each of the peptides was then used to crosslink hydrogels containing hMSCs or hUVECs at 20 million cells mL^−1 and cultured for 1, 3, or 7 days. To maximize cell spreading, we made soft hydrogels that were 3.5% 8‐arm poly(ethylene glycol) (PEG) by weight. 40% of the arms were reacted with the crosslinking peptides, and 10% of the arms were functionalized with a cyclic RGD peptide for cell adhesion. […] This supports the inhibitor studies for the soluble peptides in which the MMP‐14 inhibitor completely abolished the degradation of the KLVAD‐LM peptide by hUVECs, but not the PanMMP peptide. (Figure 3C).
(§2) For all hydrogel studies, the total volume of hydrogel was 20 µL, made with 3.5% (wt/wt) PEG, 40% of the arms were functionalized with crosslinking peptides, and 10% were functionalized with cyclic‐RGD, with a final cell concentration of 20 million cells per mL. Briefly, the PEG was dissolved at 140 mg mL^−1 in PBS, the crosslinking peptides were dissolved at 22.4 mM in PBS, and the cyclic RGD was dissolved at 5.6 mM in PBS. hMSCs were harvested from T‐75 flasks. After centrifugation and pouring the supernatant liquid, the cells were resuspended at 80 000 000 or 4 000 000 cells mL^−1. The cyclic RGD and PEG PBS solutions were mixed at the ratio of 1:1. Add 10 µL of the PEG‐cyclic RGD mixer in the wells and incubate for 10 mins. The crosslinking peptides and cell solutions were mixed at a ratio of 1:1. 10 µL of the peptide‐cell mixture was pipetted into the PEG‐cyclic RGD mixer previously dropped in the wells. The solutions were pipetted until well mixed, and after 15 min in the incubator 1 mL of media was added into each well and kept in the incubator. For gels intended for imaging, 12 mm round glass coverslips were placed in each well of the 24‐well plates prior to hydrogel fabrication. For cell viability test, sylgard layers were prepared in 24 well plates to prevent unwanted cell growth on the bottom of the well wall. Sylgard kit Part A/Part B was mixed in a 10:1 ratio by volume, and the mixture was added to the 24 well plates such that the bottom of each well was completely covered by Sylgard. The plates were placed in a biosafety hood overnight with UV light on. For all studies, three technical replicates were done per condition, and the studies were repeated three times.
(§3) The hydrogels were washed with PBS three times and incubated in 4% formaldehyde in PBS for 20 min. The hydrogels were again washed with PBS three times, followed by an incubation in 0.25% Triton X‐100 in PBS solution for 20 min. The hydrogels were washed with PBS three times, followed by a 20‐min incubation of in 1% BSA in PBS. The gels were washed 3x in PBS, and 700 µL of Phalloidin/DAPI PBS staining solution (0.1% BSA, 1 µg mL^−1 DAPI, and 1 µg mL^−1 phalloidin‐iFluor 555) was added to each well, and it was incubated for 1 h in the dark at room temperature. The hydrogels were washed 3x, and 1 mL PBS was added to each well, and they were stored in a 4 °C until they were ready for imaging.
(§4) Hydrogels were imaged by confocal microscope (LSM 800, AxioObserver, EC Olan‐Neofluar 10x/0.3 objective). The 12 mm round slides with hydrogels were taken out of 24 well plates and flipped gel side down on round‐bottom slides. Confocal microscopy was carried out in the Z‐stack mode. Phalloidin was excited at 488 nm and recorded between 493 and 630 nm. DAPI was excited at 405 nm and recorded between 410 and 501 nm. Cells in each hydrogel were measured with ImageJ software according to the particle analysis results and then averaged to obtain the mean cell area in the hydrogels.
(§5) On Days 1, 3, and 7, the media from the wells was removed and 500 µL of a 10× diluted Alamar Blue stock solution in media was added to each well with hydrogels. Three wells without any cells were used for background subtraction. The gels were incubated for 4 h, at which time the absorbance was measured with a spectrophotometer at a wavelength of 579 nm (600 nm reference). […]

hUVECs = test: as above; format: cell-based, human; details: 3.5% 8-arm PEG, 40% arms crosslinking peptide, 10% cyclic RGD, 20 million cells mL^−1, up to Day 7
From the text: as §1, §2, §3, §4, §5

SMILES	cell spreading, growth and viability of hMSCs in crosslinked hydrogels (hMSCs)	cell spreading, growth and viability of hUVECs in crosslinked hydrogels (hUVECs)
CSCC[C@H](NC(=O)[C@H](CC(C)C)NC(=O)[C@H](CC(=O)O)NC(=O)[C@H](C)NC(=O)[C@@H](NC(=O)[C@H](CC(C)C)NC(=O)[C@H](CCCCN)NC(=O)CCNC(C)=O)C(C)C)C(=O)N[C@@H](C)C(=O)N[C@@H](CO)C(=O)N[C@@H](C)C(=O)N[C@@H](CCC(=O)O)C(=O)NCCC(N)=O [KLVAD-LM] (Ac-[βAla]KLVADLMASAE[βAla]-NH2)	supported cell spreading and growth	supported cell spreading and growth
CC(=O)NCCC(=O)N[C@@H](CCCCN)C(=O)N[C@@H](CC(C)C)C(=O)N[C@H](C(=O)N[C@@H](C)C(=O)N[C@@H](CC(=O)O)C(=O)N[C@@H](CC(N)=O)C(=O)N[C@@H](Cc1ccc(O)cc1)C(=O)N[C@@H](C)C(=O)N[C@@H](CO)C(=O)N[C@@H](C)C(=O)N[C@@H](CCC(=O)O)C(=O)NCCC(N)=O)C(C)C [KLVAD-NY] (Ac-[βAla]KLVADNYASAE[βAla]-NH2)	no detectable cells	only minimal cell spreading
CC(=O)NCCC(=O)N[C@@H](CCCCN)C(=O)N[C@@H](CC(C)C)C(=O)N[C@H](C(=O)N[C@@H](C)C(=O)N[C@@H](CC(=O)O)C(=O)N1CCC[C@H]1C(=O)N[C@@H](Cc1ccc(O)cc1)C(=O)N[C@@H](C)C(=O)N[C@@H](CO)C(=O)N[C@@H](C)C(=O)N[C@@H](CCC(=O)O)C(=O)NCCC(N)=O)C(C)C [KLVAD-PY] (Ac-[βAla]KLVADPYASAE[βAla]-NH2)	less cell spreading and viability	less cell spreading and viability
